Reference: ChEMBL document CHEMBL3885881, “DrugMatrix”

Species: Rattus norvegicus
Experiment: DrugMatrix - Regimen: Daily Repeat
Format: toxicity, organism-based, Sprague-Dawley
Parameters: regimen Daily Repeat, gender Male, age 6-8 weeks
Conditions: in vivo, po, route oral GAVAGE, vehicle .5 % CMC; for ABSOLUTE BASOPHIL / ABSOLUTE EOSINOPHIL / ABSOLUTE LYMPHOCYTE / ABSOLUTE MONOCYTE / ABSOLUTE SEGMENTED NEUTROPHIL / BASOPHIL / EOSINOPHIL / ERYTHROCYTE COUNT / HEMATOCRIT / HEMOGLOBIN / LEUKOCYTE COUNT / LYMPHOCYTE / MEAN CORPUSCULAR HEMOGLOBIN / MEAN CORPUSCULAR HEMOGLOBIN CONCENTRATION / MEAN CORPUSCULAR VOLUME / MONOCYTE / NEUTROPHIL / NUCLEATED RED BLOOD CELLS / PLATELET COUNT: tissue Blood; for ALANINE AMINOTRANSFERASE / ALBUMIN / ALKALINE PHOSPHATASE / ASPARTATE AMINOTRANSFERASE / BLOOD UREA NITROGEN / CARBON DIOXIDE / CHLORIDE / CHOLESTEROL / CREATINE PHOSPHOKINASE / CREATININE / GLUCOSE / LACTATE DEHYDROGENASE / LIPASE / PHOSPHORUS / POTASSIUM / SODIUM / TOTAL BILIRUBIN / TOTAL PROTEIN / URIC ACID: tissue Plasma
[1] = 100 mg/kg, 120 h, dose level Low, time 5 day
[2] = 2500 mg/kg, 72 h, dose level High, time 3 day
[3] = 2500 mg/kg, 120 h, dose level High, time 5 day

NC(=O)CN1CCCC1=O
ABSOLUTE BASOPHIL [1]: 0 CELLS/uL | ABSOLUTE EOSINOPHIL [1]: 42 CELLS/uL | ABSOLUTE LYMPHOCYTE [1]: 9826.67 CELLS/uL | ABSOLUTE MONOCYTE [1]: 141.33 CELLS/uL | ABSOLUTE SEGMENTED NEUTROPHIL [1]: 823.33 CELLS/uL | BASOPHIL [1]: 0% | EOSINOPHIL [1]: 0.33% | ERYTHROCYTE COUNT [1]: 5.31 x10E6/uL | HEMATOCRIT [1]: 34.1% | HEMOGLOBIN [1]: 13.87 G/DL | LEUKOCYTE COUNT [1]: 10.83 x10E3/uL | LYMPHOCYTE [1]: 90.67% | MEAN CORPUSCULAR HEMOGLOBIN [1]: 26.1 pg | MEAN CORPUSCULAR HEMOGLOBIN CONCENTRATION [1]: 40.7 G/DL | MEAN CORPUSCULAR VOLUME [1]: 64.2 fL | MONOCYTE [1]: 1.33% | NEUTROPHIL [1]: 7.67% | NUCLEATED RED BLOOD CELLS [1]: 0 /100WBC | PLATELET COUNT [1]: 1439.67 x10E3/uL | ALANINE AMINOTRANSFERASE [1]: 57.33 u/L | ALBUMIN [1]: 4.37 G/DL | ALKALINE PHOSPHATASE [1]: 345.67 u/L | ASPARTATE AMINOTRANSFERASE [1]: 81.33 u/L | BLOOD UREA NITROGEN [1]: 14 mg/dL | CARBON DIOXIDE [1]: 31 mmol/L | CHLORIDE [1]: 101.33 MEQ/L | CHOLESTEROL [1]: 79 mg/dL | CREATINE PHOSPHOKINASE [1]: 221.33 u/L | CREATININE [1]: 0.2 mg/dL | GLUCOSE [1]: 137.33 mg/dL | LACTATE DEHYDROGENASE [1]: 190.33 u/L | LIPASE [1]: 10 u/L | PHOSPHORUS [1]: 12 mg/dL | POTASSIUM [1]: 6.54 MEQ/L | SODIUM [1]: 144.03 MEQ/L | TOTAL BILIRUBIN [1]: 0.23 mg/dL | TOTAL PROTEIN [1]: 6.17 G/DL | URIC ACID [1]: 1.2 mg/dL | ABSOLUTE BASOPHIL [2]: 0 CELLS/uL | ABSOLUTE EOSINOPHIL [2]: 0 CELLS/uL | ABSOLUTE LYMPHOCYTE [2]: 13503 CELLS/uL | ABSOLUTE MONOCYTE [2]: 41.67 CELLS/uL | ABSOLUTE SEGMENTED NEUTROPHIL [2]: 1822 CELLS/uL | BASOPHIL [2]: 0% | EOSINOPHIL [2]: 0% | ERYTHROCYTE COUNT [2]: 5.25 x10E6/uL | HEMATOCRIT [2]: 34.27% | HEMOGLOBIN [2]: 13.27 G/DL | LEUKOCYTE COUNT [2]: 15.37 x10E3/uL | LYMPHOCYTE [2]: 88.33% | MEAN CORPUSCULAR HEMOGLOBIN [2]: 25.33 pg | MEAN CORPUSCULAR HEMOGLOBIN CONCENTRATION [2]: 38.77 G/DL | MEAN CORPUSCULAR VOLUME [2]: 65.3 fL | MONOCYTE [2]: 0.33% | NEUTROPHIL [2]: 11.33% | NUCLEATED RED BLOOD CELLS [2]: 0 /100WBC | PLATELET COUNT [2]: 1334.33 x10E3/uL | ALANINE AMINOTRANSFERASE [2]: 49 u/L | ALBUMIN [2]: 3.97 G/DL | ALKALINE PHOSPHATASE [2]: 347.33 u/L | ASPARTATE AMINOTRANSFERASE [2]: 74 u/L | BLOOD UREA NITROGEN [2]: 20.67 mg/dL | CARBON DIOXIDE [2]: 31 mmol/L | CHLORIDE [2]: 102.67 MEQ/L | CHOLESTEROL [2]: 67.67 mg/dL | CREATINE PHOSPHOKINASE [2]: 351.33 u/L | CREATININE [2]: 0.18 mg/dL | GLUCOSE [2]: 147.33 mg/dL | LACTATE DEHYDROGENASE [2]: 239 u/L | LIPASE [2]: 9.67 u/L | PHOSPHORUS [2]: 12.57 mg/dL | POTASSIUM [2]: 6.21 MEQ/L | SODIUM [2]: 146 MEQ/L | TOTAL BILIRUBIN [2]: 0.2 mg/dL | TOTAL PROTEIN [2]: 5.7 G/DL | URIC ACID [2]: 1.4 mg/dL | ABSOLUTE BASOPHIL [3]: 0 CELLS/uL | ABSOLUTE EOSINOPHIL [3]: 37.33 CELLS/uL | ABSOLUTE LYMPHOCYTE [3]: 8603 CELLS/uL | ABSOLUTE MONOCYTE [3]: 37.33 CELLS/uL | ABSOLUTE SEGMENTED NEUTROPHIL [3]: 1055.67 CELLS/uL | BASOPHIL [3]: 0% | EOSINOPHIL [3]: 0.33% | ERYTHROCYTE COUNT [3]: 5.53 x10E6/uL | HEMATOCRIT [3]: 34.87% | HEMOGLOBIN [3]: 14.13 G/DL | LEUKOCYTE COUNT [3]: 9.73 x10E3/uL | LYMPHOCYTE [3]: 88.67% | MEAN CORPUSCULAR HEMOGLOBIN [3]: 25.6 pg | MEAN CORPUSCULAR HEMOGLOBIN CONCENTRATION [3]: 40.53 G/DL | MEAN CORPUSCULAR VOLUME [3]: 63.17 fL | MONOCYTE [3]: 0.33% | NEUTROPHIL [3]: 10.67% | NUCLEATED RED BLOOD CELLS [3]: 0 /100WBC | PLATELET COUNT [3]: 1291.33 x10E3/uL | ALANINE AMINOTRANSFERASE [3]: 61.33 u/L | ALBUMIN [3]: 4.27 G/DL | ALKALINE PHOSPHATASE [3]: 359.33 u/L | ASPARTATE AMINOTRANSFERASE [3]: 86.33 u/L | BLOOD UREA NITROGEN [3]: 18.33 mg/dL | CARBON DIOXIDE [3]: 28.67 mmol/L | CHLORIDE [3]: 101.67 MEQ/L | CHOLESTEROL [3]: 64 mg/dL | CREATINE PHOSPHOKINASE [3]: 310 u/L | CREATININE [3]: 0.16 mg/dL | GLUCOSE [3]: 160.33 mg/dL | LACTATE DEHYDROGENASE [3]: 149.33 u/L | LIPASE [3]: 7.33 u/L | PHOSPHORUS [3]: 12.07 mg/dL | POTASSIUM [3]: 5.7 MEQ/L | SODIUM [3]: 146.23 MEQ/L | TOTAL BILIRUBIN [3]: 0.17 mg/dL | TOTAL PROTEIN [3]: 6.17 G/DL | URIC ACID [3]: 1.67 mg/dL
